Biological target: T1, APOL1 (Homo sapiens, UniProt O14791)
T1 sequence (O14791 1-398 S342G/I384M): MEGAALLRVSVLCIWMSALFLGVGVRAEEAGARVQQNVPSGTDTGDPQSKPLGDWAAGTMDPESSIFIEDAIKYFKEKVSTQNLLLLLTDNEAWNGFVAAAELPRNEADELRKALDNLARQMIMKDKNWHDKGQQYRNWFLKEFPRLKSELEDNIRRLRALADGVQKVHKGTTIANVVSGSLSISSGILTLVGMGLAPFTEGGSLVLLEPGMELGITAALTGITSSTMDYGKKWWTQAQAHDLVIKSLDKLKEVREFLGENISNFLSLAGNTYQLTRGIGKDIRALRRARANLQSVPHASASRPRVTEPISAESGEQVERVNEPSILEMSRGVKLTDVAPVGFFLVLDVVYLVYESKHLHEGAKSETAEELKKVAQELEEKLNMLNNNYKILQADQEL
Experiment: Multi-Tox Assay (MultiTox-Fluor Multiplex Cytotoxicity Assay in tet-inducible APOL1 T-REx-HEK293 cells; Table 46 does not say which APOL1 variant G0/G1/G2)
Assay type: cell-based
Conditions: APOL1 variant not given

SMILES	Multi-Tox Assay Max Activity (%)
C[C@H]1C[C@@]2(C[C@@H](c3cnc(C4CCOCC4)o3)N1)OCCc1cc(Cl)sc12 (racemic) [Compound 140]	99.7
Cc1nn(C)cc1[C@@H]1C[C@]2(C[C@H](C)N1)OCCc1cc(Cl)sc12 (racemic) [Compound 142]	99.0
Cc1nc([C@@H]2C[C@]3(C[C@H](C)N2)OCCc2cc(Cl)sc23)oc1C (racemic) [Compound 144]	98.0
C[C@H]1C[C@@]2(C[C@@H](c3cccc(-c4cn[nH]c4)c3)N1)OCCc1cc(Cl)sc12 (racemic) [Compound 148]	97.0
Cc1nc([C@@H]2C[C@]3(C[C@H](C)N2)OCCc2cc(Cl)sc23)[nH]c1C (racemic) [Compound 150]	96.3
C[C@H]1C[C@@]2(C[C@@H](c3ccnn3C)N1)OCCc1cc(Cl)sc12 (racemic) [Compound 152]	98.0
CCc1c[nH]c([C@@H]2C[C@]3(C[C@H](C)N2)OCCc2cc(Cl)sc23)n1 (racemic) [Compound 153]	96.0
Cc1ncoc1[C@@H]1C[C@]2(C[C@H](C)N1)OCCc1cc(Cl)sc12 (racemic) [Compound 157]	96.3

Same assay, conditions: IP50 = IC50 for cell proliferation, APOL1 variant not given

SMILES	IC50 [µM]
Cc1c([C@@H]2C[C@]3(C[C@H](C)N2)OCCc2cc(Cl)sc23)cnn1C (racemic) [Compound 136]	0.05 to 0.5
C[C@H]1C[C@@]2(C[C@@H](c3cnc(C4CCOCC4)o3)N1)OCCc1cc(Cl)sc12 (racemic) [Compound 140]	0.05 to 0.5
C[C@H]1C[C@@]2(C[C@@H](c3cccc4[nH]c(=O)oc34)N1)OCCc1cc(Cl)sc12 (racemic) [Compound 141]	0.05 to 0.5
Cc1nn(C)cc1[C@@H]1C[C@]2(C[C@H](C)N1)OCCc1cc(Cl)sc12 (racemic) [Compound 142]	0.05 to 0.5
Cc1nc([C@@H]2C[C@]3(C[C@H](C)N2)OCCc2cc(Cl)sc23)oc1C (racemic) [Compound 144]	0.05 to 0.5
COc1ccnc([C@@H]2C[C@]3(C[C@H](C)N2)OCCc2cc(Cl)sc23)n1 (racemic) [Compound 145]	0.05 to 0.5
C[C@H]1C[C@@]2(C[C@@H](c3cccc(S(C)(=O)=O)c3)N1)OCCc1cc(Cl)sc12 (racemic) [Compound 146]	0.05 to 0.5
C[C@H]1C[C@@]2(C[C@@H](c3cccc(S(N)(=O)=O)c3)N1)OCCc1cc(Cl)sc12 (racemic) [Compound 147]	0.05 to 0.5
C[C@H]1C[C@@]2(C[C@@H](c3cccc(-c4cn[nH]c4)c3)N1)OCCc1cc(Cl)sc12 (racemic) [Compound 148]	0.05 to 0.5
C[C@H]1C[C@@]2(C[C@@H](c3cnc4n3CCOC4)N1)OCCc1cc(Cl)sc12 (racemic) [Compound 149]	0.05 to 0.5
Cc1nc([C@@H]2C[C@]3(C[C@H](C)N2)OCCc2cc(Cl)sc23)[nH]c1C (racemic) [Compound 150]	0.05 to 0.5
C[C@H]1C[C@@]2(C[C@@H](c3cccc(=O)[nH]3)N1)OCCc1cc(Cl)sc12 (racemic) [Compound 151]	0.05 to 0.5
C[C@H]1C[C@@]2(C[C@@H](c3ccnn3C)N1)OCCc1cc(Cl)sc12 (racemic) [Compound 152]	0.05 to 0.5
CCc1c[nH]c([C@@H]2C[C@]3(C[C@H](C)N2)OCCc2cc(Cl)sc23)n1 (racemic) [Compound 153]	0.05 to 0.5
COc1nn(C)cc1[C@@H]1C[C@]2(C[C@H](C)N1)OCCc1cc(Cl)sc12 (racemic) [Compound 154]	> 0.5
Cc1coc([C@@H]2C[C@]3(C[C@H](C)N2)OCCc2cc(Cl)sc23)n1 (racemic) [Compound 155]	0.05 to 0.5
Cc1nc([C@@H]2C[C@]3(C[C@H](C)N2)OCCc2cc(Cl)sc23)c[nH]1 (racemic) [Compound 156]	> 0.5
Cc1ncoc1[C@@H]1C[C@]2(C[C@H](C)N1)OCCc1cc(Cl)sc12 (racemic) [Compound 157]	0.05 to 0.5
Cc1nn(CCO)cc1[C@@H]1C[C@]2(C[C@H](C)N1)OCCc1cc(Cl)sc12 (racemic) [Compound 158]	> 0.5

Biological target: T2, APOL1 G1 (Homo sapiens, UniProt O14791, I384M/S342G)
T2 sequence (O14791 28-398 S342G/I384M): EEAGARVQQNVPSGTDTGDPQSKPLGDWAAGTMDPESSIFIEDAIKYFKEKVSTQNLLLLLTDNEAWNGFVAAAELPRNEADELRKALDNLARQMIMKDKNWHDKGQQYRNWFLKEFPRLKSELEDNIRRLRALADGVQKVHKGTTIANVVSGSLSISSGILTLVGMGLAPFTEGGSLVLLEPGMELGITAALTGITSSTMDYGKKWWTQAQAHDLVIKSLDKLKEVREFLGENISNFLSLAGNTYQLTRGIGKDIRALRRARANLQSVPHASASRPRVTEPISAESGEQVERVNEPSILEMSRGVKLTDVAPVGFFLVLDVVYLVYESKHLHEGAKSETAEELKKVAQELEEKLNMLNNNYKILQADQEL
Experiment: Trypanosoma brucei brucei Lysis Assay Using APOL1 Recombinant Protein (AlamarBlue viability readout)
Assay type: cell-based
Conditions: Trypanosome Assay; IP50 = IC50 for cell proliferation; read-out: Trypanosome Assay IP50
Method in brief: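 Percent viability comes from AlamarBlue (resazurin→resorufin) fluorescence interpolated on a standard curve of known parasite numbers, with no-APOL1 wells as 100%. Parasites (Lister 427 bloodstream form, 120,000/well, serum-free assay medium) meet 0.05 μg/mL APOL1 (~EC90). Compounds span a 10-point series, 0.1% DMSO final.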

SMILES	IC50 [µM]
Cc1c([C@@H]2C[C@]3(C[C@H](C)N2)OCCc2cc(Cl)sc23)cnn1C (racemic) [Compound 136]	0.05 to 0.5
C[C@H]1C[C@@]2(C[C@@H](c3cnc(C4CCOCC4)o3)N1)OCCc1cc(Cl)sc12 (racemic) [Compound 140]	0.05 to 0.5
C[C@H]1C[C@@]2(C[C@@H](c3cccc4[nH]c(=O)oc34)N1)OCCc1cc(Cl)sc12 (racemic) [Compound 141]	0.05 to 0.5
Cc1nn(C)cc1[C@@H]1C[C@]2(C[C@H](C)N1)OCCc1cc(Cl)sc12 (racemic) [Compound 142]	0.05 to 0.5
Cc1nc([C@@H]2C[C@]3(C[C@H](C)N2)OCCc2cc(Cl)sc23)oc1C (racemic) [Compound 144]	0.05 to 0.5
COc1ccnc([C@@H]2C[C@]3(C[C@H](C)N2)OCCc2cc(Cl)sc23)n1 (racemic) [Compound 145]	0.05 to 0.5
C[C@H]1C[C@@]2(C[C@@H](c3cccc(S(C)(=O)=O)c3)N1)OCCc1cc(Cl)sc12 (racemic) [Compound 146]	0.05 to 0.5
C[C@H]1C[C@@]2(C[C@@H](c3cccc(S(N)(=O)=O)c3)N1)OCCc1cc(Cl)sc12 (racemic) [Compound 147]	0.05 to 0.5
C[C@H]1C[C@@]2(C[C@@H](c3cccc(-c4cn[nH]c4)c3)N1)OCCc1cc(Cl)sc12 (racemic) [Compound 148]	0.05 to 0.5
C[C@H]1C[C@@]2(C[C@@H](c3cnc4n3CCOC4)N1)OCCc1cc(Cl)sc12 (racemic) [Compound 149]	> 0.5
Cc1nc([C@@H]2C[C@]3(C[C@H](C)N2)OCCc2cc(Cl)sc23)[nH]c1C (racemic) [Compound 150]	> 0.5
C[C@H]1C[C@@]2(C[C@@H](c3cccc(=O)[nH]3)N1)OCCc1cc(Cl)sc12 (racemic) [Compound 151]	> 0.5
C[C@H]1C[C@@]2(C[C@@H](c3ccnn3C)N1)OCCc1cc(Cl)sc12 (racemic) [Compound 152]	> 0.5
CCc1c[nH]c([C@@H]2C[C@]3(C[C@H](C)N2)OCCc2cc(Cl)sc23)n1 (racemic) [Compound 153]	> 0.5
COc1nn(C)cc1[C@@H]1C[C@]2(C[C@H](C)N1)OCCc1cc(Cl)sc12 (racemic) [Compound 154]	> 0.5
Cc1coc([C@@H]2C[C@]3(C[C@H](C)N2)OCCc2cc(Cl)sc23)n1 (racemic) [Compound 155]	> 0.5
Cc1nc([C@@H]2C[C@]3(C[C@H](C)N2)OCCc2cc(Cl)sc23)c[nH]1 (racemic) [Compound 156]	> 0.5
Cc1ncoc1[C@@H]1C[C@]2(C[C@H](C)N1)OCCc1cc(Cl)sc12 (racemic) [Compound 157]	> 0.5
Cc1nn(CCO)cc1[C@@H]1C[C@]2(C[C@H](C)N1)OCCc1cc(Cl)sc12 (racemic) [Compound 158]	> 0.5

Same assay, conditions: Trypanosome Assay; read-out: Trypanosome Assay Max Activity (%)

SMILES	Emax [%]
Cc1c([C@@H]2C[C@]3(C[C@H](C)N2)OCCc2cc(Cl)sc23)cnn1C (racemic) [Compound 136]	100
C[C@H]1C[C@@]2(C[C@@H](c3cnc(C4CCOCC4)o3)N1)OCCc1cc(Cl)sc12 (racemic) [Compound 140]	102
C[C@H]1C[C@@]2(C[C@@H](c3cccc4[nH]c(=O)oc34)N1)OCCc1cc(Cl)sc12 (racemic) [Compound 141]	90
Cc1nn(C)cc1[C@@H]1C[C@]2(C[C@H](C)N1)OCCc1cc(Cl)sc12 (racemic) [Compound 142]	83.7
Cc1nc([C@@H]2C[C@]3(C[C@H](C)N2)OCCc2cc(Cl)sc23)oc1C (racemic) [Compound 144]	102
COc1ccnc([C@@H]2C[C@]3(C[C@H](C)N2)OCCc2cc(Cl)sc23)n1 (racemic) [Compound 145]	88
C[C@H]1C[C@@]2(C[C@@H](c3cccc(S(C)(=O)=O)c3)N1)OCCc1cc(Cl)sc12 (racemic) [Compound 146]	88
C[C@H]1C[C@@]2(C[C@@H](c3cccc(S(N)(=O)=O)c3)N1)OCCc1cc(Cl)sc12 (racemic) [Compound 147]	93.5
C[C@H]1C[C@@]2(C[C@@H](c3cccc(-c4cn[nH]c4)c3)N1)OCCc1cc(Cl)sc12 (racemic) [Compound 148]	92.5
C[C@H]1C[C@@]2(C[C@@H](c3cnc4n3CCOC4)N1)OCCc1cc(Cl)sc12 (racemic) [Compound 149]	95
Cc1nc([C@@H]2C[C@]3(C[C@H](C)N2)OCCc2cc(Cl)sc23)[nH]c1C (racemic) [Compound 150]	87
C[C@H]1C[C@@]2(C[C@@H](c3cccc(=O)[nH]3)N1)OCCc1cc(Cl)sc12 (racemic) [Compound 151]	85.7
C[C@H]1C[C@@]2(C[C@@H](c3ccnn3C)N1)OCCc1cc(Cl)sc12 (racemic) [Compound 152]	92.7
CCc1c[nH]c([C@@H]2C[C@]3(C[C@H](C)N2)OCCc2cc(Cl)sc23)n1 (racemic) [Compound 153]	89.5
COc1nn(C)cc1[C@@H]1C[C@]2(C[C@H](C)N1)OCCc1cc(Cl)sc12 (racemic) [Compound 154]	96.5
Cc1coc([C@@H]2C[C@]3(C[C@H](C)N2)OCCc2cc(Cl)sc23)n1 (racemic) [Compound 155]	97
Cc1nc([C@@H]2C[C@]3(C[C@H](C)N2)OCCc2cc(Cl)sc23)c[nH]1 (racemic) [Compound 156]	85
Cc1ncoc1[C@@H]1C[C@]2(C[C@H](C)N1)OCCc1cc(Cl)sc12 (racemic) [Compound 157]	95
Cc1nn(CCO)cc1[C@@H]1C[C@]2(C[C@H](C)N1)OCCc1cc(Cl)sc12 (racemic) [Compound 158]	75.5

Reference: patent US12421249B2, “Inhibitors of APOL1 and methods of using same” (Vertex Pharmaceuticals Incorporated, priority 2020, dated 2025)
